Data: patent publication US20260097091A1, “ADMINISTRATION OF GLUTATHIONE TRISULFIDE TO AMELIORATE PERIPHERAL NEUROPATHY” (The General Hospital Corporation, priority 2022, published 2026)

Legend:
primary DRG neurons = primary DRG neurons exposed to paclitaxel: Sholl analysis and axonal mitochondria (NF200, MitoTracker); type: cell-based, mice
Experimental: Primary DRG neurons were prepared from 8 to 10-week old mice as described previously. Briefly, lumber DRG (L1 to L6) were isolated from mice and centrifuged at 176×g (1000 rpm) for 3 minutes. After aspirating the solution, DRG were incubated with Dispase-II Solution (Sigma-Aldrich, Cat No. SCM133) and collagenase type II (Worthington, Cat No. LS004176) for 70 minutes and with 0.25% trypsin for 5 minutes. Subsequently triturated by frame polished glass pipet, neurons were seeded on a 12-well plate with 15 mm coverslip. Cells were incubated in Neurobasal A-medium with 2% B27 supplement (Gibco, Cat No. 10889038), 1% penicillin/streptomycin, 1% Glutamax (Gibco, Cat No. 35050061), and nerve growth factor (Sigma Aldrich, Cat No. N6009) for 24 hours. After 24 hours, they were exposed to 100 nM of paclitaxel with or without 500 nM of GSSSG or PTNSSS for one hour and 50 nM of MitoTracker (Invitrogen, Cat No. M22426) for 30 minutes. After fixing by 4% paraformaldehyde for 10 minutes at room temperature, cells were immersed in 0.2% Triton X-100 in PBS for 7 minutes and washed by PBS. They were incubated with anti-NF200 antibody (1:400, mouse, Sigma-Aldrich, Cat No. N0142) overnight at 4° C. and with the secondary antibody (1:1000, donkey anti-mouse, Abcam, Cat No. ab150105) for one hour at room temperature. After being covered with fluoroshield mounting medium with DAPI (Sigma-Aldrich, Cat No. F6057), 9-10 cells per group (3 mice per group) were imaged on confocal microscopy (ZEISS LSM 800, Carl Zeiss, Thornwood, NY) using a 63× oil immersion objectives lens with 1,024×1,024 pixels image size.
Effects of PTNSSS and GSSSG on axonal integrity were examined in cultured murine primary DRG neurons incubated with paclitaxel. […] Morphology of neurons, the number, length, and branching of neurites, was analyzed by Sholl analysis implemented in ImageJ [30]. Sholl analysis draws equally spaced circles from the soma and counts the number of intersections between neurites and circles to quantify neuronal morphology (FIG. 8C).

[1] = tested on: MDA-MB-231 human breast cancer cells; assay: MDA-MB-231 live cell count by trypan blue exclusion assay; type: cell-based; details: 24 hours
Experimental: To examine whether co-administration of GSSSG affects anti-tumor effects of paclitaxel, we conducted experiments using MDA-MB-231, a human breast cancer cell line (HTB-26, ATCC). Cells were cultured in the medium of 90% RPMI1640 (Corning, Cat No. 10-040-CV), 10% FBS, and 1% penicillin/streptomycin. After being seeded into a 96-well plate at the density of 20,000/well and cultured overnight, they were exposed to different concentrations of paclitaxel (0.125 μM, 0.25 μM, 0.5 μM, 1 μM, and 2 μM) and incubated for 24 hours. Cell viability was evaluated by LDH Cytotoxicity Detection Kit (Roche, Cat No. 11644793001). Briefly, a plate was centrifuged at 250×g for 10 minutes. […] After mixing with assay enzyme for 30 minutes at 25° C., absorbance was measured at wavelength 492 nm to determine cell viability. Inhibitory effects of paclitaxel were calculated by half-maximal inhibitory concentration (IC50). […] After being stripped by 0.25% trypsin, live cells were counted under 0.04% trypan blue. Five wells were evaluated per group.
Sample sizes for behavior test were chosen based on a previous study. All values are expressed as mean±standard deviation (SD). The behavior test results were analyzed in the mixed effect model because the behavior was measured repeatedly over five times from the same mice, and individual differences at baseline were confirmed in the preliminary study. […]

[2] = 500 nM GSSSG with 100 nM paclitaxel for one hour, vs paclitaxel

Row | Compound | axonal elongation (Sholl analysis) (primary DRG neurons; 500 nM GSSSG with 100 nM paclitaxel for one hour, >160 μm from soma, vs paclitaxel) | number of mitochondria in axons (primary DRG neurons; [2]) | ratio of the total mitochondria length to axonal length (primary DRG neurons; [2]) | number of alive MDA-MB-231 cells ([1]; 2 μM paclitaxel + 10 μM GSSSG) | number of mitochondria in axons (primary DRG neurons; 100 nM paclitaxel for one hour) | ratio of the total mitochondria length to axonal length (primary DRG neurons; 100 nM paclitaxel for one hour) | elongation of axons (Sholl analysis) (primary DRG neurons; 100 nM paclitaxel for one hour, vs control) | number of alive MDA-MB-231 cells ([1]; 2 μM paclitaxel alone)
1 | N[C@@H](CCC(=O)N[C@@H](CSSSC[C@H](NC(=O)CC[C@H](N)C(=O)O)C(=O)NCC(=O)O)C(=O)NCC(=O)O)C(=O)O [GSSSG, glutathione trisulfide] | restored axonal elongation | prevented paclitaxel-induced decrease | prevented paclitaxel-induced decrease of the ratio of the total mitochondria length to axonal length | 48.3 % of control cells |  |  |  | 
2 | CC(=O)O[C@H]1C(=O)[C@@]2(C)[C@H]([C@H](OC(=O)c3ccccc3)[C@]3(O)C[C@H](OC(=O)[C@H](O)[C@@H](NC(=O)c4ccccc4)c4ccccc4)C(C)=C1C3(C)C)[C@]1(OC(C)=O)CO[C@@H]1C[C@@H]2O [paclitaxel, Paclitaxel, reference compound] |  |  |  |  | decreased | decreased the ratio of the total mitochondria length to axonal length | hampered elongation of axons | 44.9 % of control cells
